# Test results from patent publication US20230407243A1, “GENETIC PLATFORM TO INVESTIGATE THE FUNCTIONS OF BACTERIAL DRUG EFFLUX PUMPS” (priority 2022, published 2023).
# Tests used:
# Experiment in all cases: MIC susceptibility profiling, efflux platform
# Assay type in all cases: cell-based, Escherichia coli
# EKO-35 araC::acrD = conditions: for Fold change of MICs: EKO-35 araC::acrD compared to EKO-35
# Summary of the method: (§1)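 OD600 read-out, background-corrected, after 18 h at 37 °C with shaking. Compounds were tested in duplicate as 2-fold series in MHB II, with DMSO as solvent control. Inoculum was a 1/2000 dilution of an OD600 ~1.0 PBS suspension.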
# EKO-35 araC::emrAB = conditions: for Fold change of MICs: EKO-35 araC::emrAB compared to EKO-35; for Minimum Inhibitory Concentration, EKO-35 araC::emrAB / MIC: Table 13B, non-porinated, technical duplicate; for MIC: Escherichia coli, read-out: Minimum Inhibitory Concentration, EKO-35 araC::emrAB
# Summary of the method: as §1
# [1] = test system: EKO-35 araC::mexCD (MexCD from P. aeruginosa); conditions: for Fold change of MICs: EKO-35 araC::mexCD compared to EKO-35; for Minimum Inhibitory Concentration, EKO-35 araC::mexCD / MIC: Table 13B, non-porinated, technical duplicate; for MIC: read-out: Minimum Inhibitory Concentration, EKO-35 araC::mexCD
# Summary of the method: as §1
# EKO-35 araC::acrB = conditions: for Fold change of MICs: EKO-35 araC::acrB compared to EKO-35
# Summary of the method: as §1
# EKO-35 araC::emrKY = conditions: for Fold change of MICs: EKO-35 araC::emrKY compared to EKO-35; for Minimum Inhibitory Concentration, EKO-35 araC::emrKY / MIC: Table 13B, non-porinated, technical duplicate; for MIC: Escherichia coli, read-out: Minimum Inhibitory Concentration, EKO-35 araC::emrKY
# Summary of the method: as §1
# EKO-35 araC::acrBD408A = conditions: for Fold change of MICs: EKO-35 araC::acrBD408A compared to EKO-35; for Minimum Inhibitory Concentration, EKO-35 araC::acrBD408A / MIC: Table 13B, non-porinated, technical duplicate; for MIC: Escherichia coli, read-out: Minimum Inhibitory Concentration, EKO-35 araC::acrBD408A
# Summary of the method: as §1
# EKO-35 araC::macAB = conditions: for Fold change of MICs: EKO-35 araC::macAB compared to EKO-35; for Minimum Inhibitory Concentration, EKO-35 araC::macAB / MIC: Table 13B, non-porinated, technical duplicate; for MIC: Escherichia coli, read-out: Minimum Inhibitory Concentration, EKO-35 araC::macAB
# Summary of the method: as §1
# EKO-35 araC::acrEF = conditions: for Fold change of MICs: EKO-35 araC::acrEF compared to EKO-35
# Summary of the method: as §1
# [2] = Table 13A, non-porinated, technical duplicate
SMILES,Fold change of MICs (EKO-35 araC::acrD) [fold],"Minimum Inhibitory Concentration, EKO-35 araC::acrD (EKO-35 araC::acrD; [2]) [µg/mL]",Fold change of MICs (EKO-35 araC::emrAB) [fold],"Minimum Inhibitory Concentration, EKO-35 araC::emrAB (EKO-35 araC::emrAB) [µg/mL]",Fold change of MICs [1] [fold],"Minimum Inhibitory Concentration, EKO-35 araC::mexCD [1] [µg/mL]",Fold change of MICs (EKO-35 araC::acrB) [fold],"Minimum Inhibitory Concentration, EKO-35 araC::acrB (EKO-35 araC::acrB; [2]) [µg/mL]",Fold change of MICs (EKO-35 araC::emrKY) [fold],"Minimum Inhibitory Concentration, EKO-35 araC::emrKY (EKO-35 araC::emrKY) [µg/mL]",Fold change of MICs (EKO-35 araC::acrBD408A) [fold],"Minimum Inhibitory Concentration, EKO-35 araC::acrBD408A (EKO-35 araC::acrBD408A) [µg/mL]",Fold change of MICs (EKO-35 araC::macAB) [fold],"Minimum Inhibitory Concentration, EKO-35 araC::macAB (EKO-35 araC::macAB) [µg/mL]",Fold change of MICs (EKO-35 araC::acrEF) [fold],"Minimum Inhibitory Concentration, EKO-35 araC::acrEF (EKO-35 araC::acrEF; [2]) [µg/mL]",MIC (EKO-35 araC::emrAB) [µg/mL],MIC [1] [µg/mL],MIC (EKO-35 araC::emrKY) [µg/mL],MIC (EKO-35 araC::acrBD408A) [µg/mL],other results
C=C1CCO[C@]2([C@@H](O)[C@@](C)(O)CO)NC(=O)[C@@]1(O)NC2=O [Bicyclomycin],1,200,1,200,1,200,1,200,1,200,1,200,1,200,1,200,–,–,–,–,–
N#CC(C#N)=NNc1cccc(Cl)c1 [CCCP],1,6.25,4,50,1,12.5,1,12.5,1,12.5,1,12.5,1,12.5,1,12.5,–,–,–,–,efflux pump-mediated resistance vs EKO-35 (EKO-35 araC::emrAB; EmrAB): conferred resistance
[H]/N=C(\N/C(=N/[H])NCCCCCCNC(=N)NC(=N)Nc1ccc(Cl)cc1)Nc1ccc(Cl)cc1 [Chlorhexidine],1,–,1,–,1,–,1,–,1,–,1,–,1,–,1,–,0.391,0.391,0.391,0.391,"MIC (EKO-35 araC::acrD; Escherichia coli, Table 13A, non-porinated, technical duplicate, read-out: Minimum Inhibitory Concentration, EKO-35 araC::acrD): 0.391 µg/mL; MIC (EKO-35 araC::acrB; Escherichia coli, Table 13A, non-porinated, technical duplicate, read-out: Minimum Inhibitory Concentration, EKO-35 araC::acrB): 0.391 µg/mL; MIC (EKO-35 araC::macAB): 0.391 µg/mL; MIC (EKO-35 araC::acrEF; Escherichia coli, Table 13A, non-porinated, technical duplicate, read-out: Minimum Inhibitory Concentration, EKO-35 araC::acrEF): 0.391 µg/mL"
"CCCCCCCCCCCCOS(=O)(=O)[O-].[Na+] [SDS, sodium dodecyl sulphate]",32,–,4,–,32,–,32,–,2,–,2,–,1,–,32,–,125,1000,62.5,62.5,efflux pump-mediated resistance vs EKO-35 (EKO-35 araC::acrD; AcrD): confirmed; MIC (EKO-35 araC::macAB): 31.2 µg/mL
